Reference: US9050346B2, “Bromodomain inhibitors” (AbbVie Inc., priority 2013, dated 2015)

Experiments:
[1] = tested on: breast cancer cell line MX-1; assay: MX-1 cell line proliferation assay (3-day, Cell Titer Glo); assay type: cell-based; conditions: Homo sapiens, MX1, MX-1 cells, 72 h, top concentration 3 μM, read-out: Cellular proliferation: EC50
Description: The impact of compounds of the Examples on cancer cell proliferation was determined using the breast cancer cell line MX-1 (ATCC) in a 3-day proliferation assay and the data are reported in Table 1. MX-1 cells were maintained in RPMI 1640 medium (Sigma) supplemented with 10% FBS at 37 C.° and an atmosphere of 5% CO2. For compound testing, MX-1 cells were plated in 96-well black bottom plates at a density of 5000 cells/well in 90 μL of culture media and incubated at 37° overnight to allow cell adhesion and spreading. Compound dilution series were prepared in DMSO via a 3-fold serial dilution from 3 mM to 0.1 μM. The DMSO dilution series were then diluted 1:100 in phosphate buffered saline, and 10 μL of the resulted solution were added to the appropriate wells of the MX-1 cell plate. The final compound concentrations in the wells were 3, 1, 0.3, 0.1, 0.03, 0.01, 0.003, 0.001, 0.0003 and 0.0001 μM.
Luminescence readings from the Cell Titer Glo assay were normalized to the DMSO treated cells and analyzed using the GraphPad Prism software with sigmoidal curve fitting to obtain EC50s. The minimum significant ratio (MSR) was determined to evaluate assay reproducibility (Eastwood et al., (2006) J Biomol Screen, 11: 253-261).

BRD4 (BDI_K57-E168) = target: T1, BRD4 (BDI_K57-E168) (Homo sapiens, UniProt O60885); assay: TR-FRET bromodomain binding assay, BRD4 first bromodomain; conditions: His-tagged BD1, 100 nM Alexa647 probe; Ki calculated from IC50; dilution protocol A-G
T1 construct: BD1: amino acids K57-E168; made in house
Description: (§1) A time-resolved fluorescence resonance energy transfer (TR-FRET) assay was used to determine the affinities of compounds of the Examples listed in Table 1 for each bromodomain of BRD4. His-tagged first (BD1: amino acids K57-E168) and second (BD2: amino acids E352-E168) bromodomains of BRD4 were expressed and purified. An Alexa647-labeled BET-inhibitor was used as the fluorescent probe in the assay.
(§2) Compound dilution series were prepared in DMSO via an approximately 3-fold serial dilution from one of the following: • Assay method A: 2.5 mM-800 nM • Assay method B: 2.5 mM-797 nM • Assay method C: 1250 μM-21 nM • Assay method D: 500 μM-8.5 nM • Assay method E: 0.47 mM to 7.8 nM • Assay method F: 250 μM-4.2 nM • Assay method G: 0.047 mM to 0.78 nM or 5-fold serial dilution from Assay Method A or Assay Method B.
(§3) For Assay methods A, C, D, and F: Compounds were then diluted 6:100 in assay buffer (20 mM Sodium Phosphate, pH 6.0, 50 mM NaCl, 1 mM Ethylenediaminetetraacetic acid, 0.01% Triton X-100, 1 mM DL-Dithiothreitol) to yield 3× working solutions. Six microliters (μL) of the working solution was then transferred to white, low-volume assay plates (Costar #3673). A 1.5× assay mixture containing His-tagged bromodomain, Europium-conjugated anti-His antibody (Invitrogen PV5596) and the Alexa-647-conjugated probe molecule was also prepared. Twelve μL of this solution were added to the assay plate to reach a final volume of 18 μL.
(§4) For Assay methods B, E, and G: Compound dilutions were added directly into white, low-volume assay plates (Perkin Elmer Proxiplate 384 Plus#6008280) using a Labcyte Echo in conjunction with Labcyte Access and Thermo Multidrop CombinL robotics. Compounds were then suspended in eight microliters (μL) of assay buffer (20 mM Sodium Phosphate, pH 6.0, 50 mM NaCl, 1 mM Ethylenediaminetetraacetic acid disodium salt dihydrate, 0.01% Triton X-100, 1 mM DL-Dithiothreitol) containing His-tagged bromodomain, Europium-conjugated anti-His antibody (Invitrogen PV5596) and Alexa-647-conjugated probe.
(§5) The final concentration of 1× assay mixture for assay methods A, B, C, D, E, F, and G contains 2% DMSO, 8 nM His-tagged bromodomain, 1 nM Europium-conjugated anti-His-tag antibody and 100 nM or 30 nM probe (for BDI or BDII, respectively) and compound concentration in the range of: 50 μM-16 nM for method A, 49.02 μM-15.63 nM for method B, 25 μM-423 pM for method C, 10 μM-169 pM for method D, 9.19 μM-150 pM for method E, 5 μM-85 pM for method F, and 0.92 μM-15 pM for method G.
(§6) After a one-hour equilibration at room temperature, TR-FRET ratios were determined using an Envision multilabel plate reader (Ex 340, Em 495/520).
(§7) TR-FRET data were normalized to the means of 24 no-compound controls (“high”) and 8 controls containing 1 μM un-labeled probe (“low”). Percent inhibition was plotted as a function of compound concentration and the data were fit with the 4 parameter logistic equation to obtain IC50s Inhibition constants (Ki) were calculated from the IC50s, probe Kd and probe concentration. Typical Z′ values were between 0.65 and 0.75. The minimum significant ratio was determined to evaluate assay reproducibility (Eastwood et al., (2006) J Biomol Screen, 11: 253-261). The MSR was determined to be 2.03 for BDI and 1.93 for BDII, and a moving MSR (last six run MSR overtime) for both BDI and BDII was typically <3.

BRD4 (BDII_E352-M457) = target: T2, BRD4 (BDII_E352-M457) (Homo sapiens, UniProt O60885); assay: TR-FRET bromodomain binding assay, BRD4 second bromodomain
T2 construct: made in house
Description: as §1, §2, §3, §4, §5, §6, §7

With `Cc1[nH]c(-c2ccccc2Oc2ccccc2)c2cc(C(=O)NC3CCOCC3)[nH]c(=O)c12` [Example 38, 3-methyl-4-oxo-1-(2-phenoxyphenyl)-N-(tetrahydro-2H-pyran-4-yl)-4,5-dihydro-2H-pyrrolo[3,4-c]pyridine-6-carboxamide] the EC50 [1] was 300 nM, the Ki (BRD4 (BDI_K57-E168)) was 16.6 nM and the Ki (BRD4 (BDII_E352-M457)) was 29 nM.

Compound `Cc1[nH]c(-c2cc(NS(C)(=O)=O)ccc2Oc2ccccc2)c2cc(C(N)=O)[nH]c(=O)c12` [Example 20, 3-methyl-1-(5-(methylsulfonamido)-2-phenoxyphenyl)-4-oxo-4,5-dihydro-2H-pyrrolo[3,4-c]pyridine-6-carboxamide] has an EC50 [1] of 146 nM, a Ki (BRD4 (BDI_K57-E168)) of 1.64 nM and a Ki (BRD4 (BDII_E352-M457)) of 2.39 nM.

`CCS(=O)(=O)Nc1ccc(Oc2ccccc2)c(-c2[nH]c(C)c3c(=O)[nH]ncc23)c1` [Example 75, N-[3-(7-methyl-1-oxo-2,6-dihydro-1H-pyrrolo[3,4-d]pyridazin-5-yl)-4-phenoxyphenyl]ethanesulfonamide] was tested, and the EC50 [1] was 51.8 nM, the Ki (BRD4 (BDI_K57-E168)) was 3.66 nM and the Ki (BRD4 (BDII_E352-M457)) was 9.47 nM.

`CCOC(=O)c1cc2c(-c3cc(N)ccc3Oc3ccc(F)cc3F)[nH]c(C)c2c(=O)[nH]1` [Example 4, ethyl 1-[5-amino-2-(2,4-difluorophenoxy)phenyl]-3-methyl-4-oxo-4,5-dihydro-2H-pyrrolo[3,4-c]pyridine-6-carboxylate] showed an EC50 [1] of 77.6 nM, a Ki (BRD4 (BDI_K57-E168)) of 12.3 nM and a Ki (BRD4 (BDII_E352-M457)) of 91.3 nM.

Compound `Cc1[nH]c(-c2ccccc2Oc2ccccc2)c2nc(-c3ccco3)[nH]c(=O)c12` [Example 88, 2-(furan-2-yl)-5-methyl-7-(2-phenoxyphenyl)-3,6-dihydro-4H-pyrrolo[3,4-d]pyrimidin-4-one] has an EC50 [1] of 761 nM, a Ki (BRD4 (BDI_K57-E168)) of 380 nM and a Ki (BRD4 (BDII_E352-M457)) of 1620 nM.

`CCOC(=O)c1cc2c(-c3cc(CS(C)(=O)=O)ccc3Oc3ccc(F)cc3F)[nH]c(C)c2c(=O)[nH]1` [Example 68, ethyl 1-{2-(2,4-difluorophenoxy)-5-[(methylsulfonyl)methyl]phenyl}-3-methyl-4-oxo-4,5-dihydro-2H-pyrrolo[3,4-c]pyridine-6-carboxylate] was tested, and the EC50 [1] was 30 nM, the Ki (BRD4 (BDI_K57-E168)) was 2.12 nM and the Ki (BRD4 (BDII_E352-M457)) was 8.8 nM.

In the case of `COCc1cc2c(-c3ccccc3Oc3ccccc3)[nH]c(C)c2c(=O)[nH]1` [Example 44, 6-(methoxymethyl)-3-methyl-1-(2-phenoxyphenyl)-2,5-dihydro-4H-pyrrolo[3,4-c]pyridin-4-one], the EC50 [1] is reported as 233 nM, the Ki (BRD4 (BDI_K57-E168)) is reported as 66.7 nM and the Ki (BRD4 (BDII_E352-M457)) is reported as 424 nM.

`Cc1[nH]c(-c2cc(NS(=O)(=O)CC(F)(F)F)ccc2Oc2ccccc2)c2cn[nH]c(=O)c12` [Example 76, 2,2,2-trifluoro-N-[3-(7-methyl-1-oxo-2,6-dihydro-1H-pyrrolo[3,4-d]pyridazin-5-yl)-4-phenoxyphenyl]ethanesulfonamide] gave an EC50 [1] of 410 nM, a Ki (BRD4 (BDI_K57-E168)) of 5.82 nM and a Ki (BRD4 (BDII_E352-M457)) of 16.2 nM.

`Cc1[nH]c(-c2cc(NS(C)(=O)=O)ccc2Oc2ccc(F)cc2F)c2cc(C(N)=O)[nH]c(=O)c12` [Example 19, 1-(2-(2,4-difluorophenoxy)-5-(methylsulfonamido)phenyl)-3-methyl-4-oxo-4,5-dihydro-2H-pyrrolo[3,4-c]pyridine-6-carboxamide] was tested, and the EC50 [1] was 270 nM, the Ki (BRD4 (BDI_K57-E168)) was 1.66 nM and the Ki (BRD4 (BDII_E352-M457)) was 6.08 nM.

With `Cc1[nH]c(-c2ccccc2Oc2ccccc2)c2cc(C(=O)N3CCOCC3)[nH]c(=O)c12` [Example 15, 3-methyl-6-(morpholine-4-carbonyl)-1-(2-phenoxyphenyl)-2H-pyrrolo[3,4-c]pyridin-4(5H)-one] the EC50 [1] was 1120 nM, the Ki (BRD4 (BDI_K57-E168)) was 105 nM and the Ki (BRD4 (BDII_E352-M457)) was 307 nM.

Compound `Cc1[nH]c(-c2ccccc2Oc2ccccc2)c2cc(C(=O)NCCN3CCOCC3)[nH]c(=O)c12` [Example 27, 3-methyl-N-(2-morpholinoethyl)-4-oxo-1-(2-phenoxyphenyl)-4,5-dihydro-2H-pyrrolo[3,4-c]pyridine-6-carboxamide] has an EC50 [1] of 98.9 nM, a Ki (BRD4 (BDI_K57-E168)) of 3.81 nM and a Ki (BRD4 (BDII_E352-M457)) of 47 nM.

`COC(=O)c1cc2c(-c3cc(NS(C)(=O)=O)ccc3Oc3ccccc3)[nH]c(C)c2c(=O)[nH]1` [Example 3, methyl 3-methyl-1-(5-(methylsulfonamido)-2-phenoxyphenyl)-4-oxo-4,5-dihydro-2H-pyrrolo[3,4-c]pyridine-6-carboxylate] showed an EC50 [1] of 41.5 nM, a Ki (BRD4 (BDI_K57-E168)) of 3.33 nM and a Ki (BRD4 (BDII_E352-M457)) of 19.8 nM.

`CCOC(=O)c1nc2c(-c3ccccc3Oc3ccccc3)[nH]c(C)c2c(=O)[nH]1` [Example 87, ethyl 5-methyl-4-oxo-7-(2-phenoxyphenyl)-4,6-dihydro-3H-pyrrolo[3,4-d]pyrimidine-2-carboxylate] gave an EC50 [1] greater than 3000 nM, a Ki (BRD4 (BDI_K57-E168)) of 82.3 nM and a Ki (BRD4 (BDII_E352-M457)) of 1180 nM.

In the case of `Cc1[nH]c(-c2cc(S(C)(=O)=O)ccc2OCC2CC2)c2c1C(=O)NCC2` [Example 96, 1-[2-(cyclopropylmethoxy)-5-(methylsulfonyl)phenyl]-3-methyl-2,5,6,7-tetrahydro-4H-pyrrolo[3,4-c]pyridin-4-one], the EC50 [1] is reported as 407 nM, the Ki (BRD4 (BDI_K57-E168)) is reported as 34.3 nM and the Ki (BRD4 (BDII_E352-M457)) is reported as 461 nM.

Compound `Cc1[nH]c(-c2ccccc2Oc2ccccc2)c2cc(C(=O)NCCN3CCCC3)[nH]c(=O)c12` [Example 25, 3-methyl-4-oxo-1-(2-phenoxyphenyl)-N-[2-(pyrrolidin-1-yl)ethyl]-4,5-dihydro-2H-pyrrolo[3,4-c]pyridine-6-carboxamide] has an EC50 [1] of 163 nM, a Ki (BRD4 (BDI_K57-E168)) of 3.12 nM and a Ki (BRD4 (BDII_E352-M457)) of 92.3 nM.

Compound `CCOC(=O)c1cc2c(-c3cc(NS(=O)(=O)CC)ccc3Oc3ccc(F)cc3F)[nH]c(C)c2c(=O)[nH]1` [Example 10, ethyl 1-(2-(2,4-difluorophenoxy)-5-(ethylsulfonamido)phenyl)-3-methyl-4-oxo-4,5-dihydro-2H-pyrrolo[3,4-c]pyridine-6-carboxylate] has an EC50 [1] of 57.4 nM, a Ki (BRD4 (BDI_K57-E168)) of 1.46 nM and a Ki (BRD4 (BDII_E352-M457)) of 8.61 nM.

With `Cc1[nH]c(-c2ccccc2Oc2ccccc2)c2cc(C(=O)N3CCC(O)CC3)[nH]c(=O)c12` [Example 30, 6-(4-hydroxypiperidine-1-carbonyl)-3-methyl-1-(2-phenoxyphenyl)-2H-pyrrolo[3,4-c]pyridin-4(5H)-one] the EC50 [1] was 1350 nM, the Ki (BRD4 (BDI_K57-E168)) was 92.6 nM and the Ki (BRD4 (BDII_E352-M457)) was 48.8 nM.

With `CCOC(=O)c1cc2c(-c3cc(F)ccc3OC3CCCCC3)[nH]c(C)c2c(=O)[nH]1` [Example 48, ethyl 1-[2-(cyclohexyloxy)-5-fluorophenyl]-3-methyl-4-oxo-4,5-dihydro-2H-pyrrolo[3,4-c]pyridine-6-carboxylate] the EC50 [1] was 139 nM, the Ki (BRD4 (BDI_K57-E168)) was 5.05 nM and the Ki (BRD4 (BDII_E352-M457)) was 96.4 nM.

For `Cc1[nH]c(-c2ccccc2Oc2ccccc2)c2cc(-c3nc(-c4ccncc4)no3)[nH]c(=O)c12` [Example 45, 3-methyl-1-(2-phenoxyphenyl)-6-(3-(pyridin-4-yl)-1,2,4-oxadiazol-5-yl)-2H-pyrrolo[3,4-c]pyridin-4(5H)-one], the EC50 [1] was 180 nM and the Ki (BRD4 (BDI_K57-E168)) was 10.5 nM.
